In ChEMBL document CHEMBL5108059, “Discovery of 2-Methyl-2-(4-(2-methyl-8-(1H-pyrrolo[2,3-b]pyridin-6-yl)-1H-naphtho[1,2-d]imidazol-1-yl)phenyl)propanenitrile as a Novel PI3K/mTOR Inhibitor with Enhanced Antitumor Efficacy In Vitro and In Vivo” (J Med Chem, 2022):
Calls of active or inactive are those of the source. The rule behind the calls is not given here.

Legend:
[1] = tested on: HeLa; assay: Antiproliferative activity against human HeLa cells assessed as inhibition of cell growth incubated for 48 to 72 hrs by MTT assay; assay type: functional, cell-based
[2] = tested on: SW-620; assay: Induction of cell cycle arrest in human SW620 cells assessed as accumulation of cells at G0/G1 phase measured after 24 hrs by propidium iodide staining based flow cytometry analysis; assay type: functional; details: dose 0.15625-2.5 µM, DDE = dose-dependent effect
[3] = Half life in Sprague-Dawley rat at 1 mg/kg, iv measured for 24 hrs by LC-MS/MS analysis; assay type: ADME, organism-based; details: in vivo
[4] = target: T1, Phosphatidylinositol 4,5-bisphosphate 3-kinase catalytic subunit delta isoform (Homo sapiens, UniProt O00329); assay: Inhibition of PI3Kdelta (unknown origin) using PIP2 as substrate incubated for 2 hrs in presence of ATP by Kinase Glo luminescence assay
T1 sequence (O00329 whole entry): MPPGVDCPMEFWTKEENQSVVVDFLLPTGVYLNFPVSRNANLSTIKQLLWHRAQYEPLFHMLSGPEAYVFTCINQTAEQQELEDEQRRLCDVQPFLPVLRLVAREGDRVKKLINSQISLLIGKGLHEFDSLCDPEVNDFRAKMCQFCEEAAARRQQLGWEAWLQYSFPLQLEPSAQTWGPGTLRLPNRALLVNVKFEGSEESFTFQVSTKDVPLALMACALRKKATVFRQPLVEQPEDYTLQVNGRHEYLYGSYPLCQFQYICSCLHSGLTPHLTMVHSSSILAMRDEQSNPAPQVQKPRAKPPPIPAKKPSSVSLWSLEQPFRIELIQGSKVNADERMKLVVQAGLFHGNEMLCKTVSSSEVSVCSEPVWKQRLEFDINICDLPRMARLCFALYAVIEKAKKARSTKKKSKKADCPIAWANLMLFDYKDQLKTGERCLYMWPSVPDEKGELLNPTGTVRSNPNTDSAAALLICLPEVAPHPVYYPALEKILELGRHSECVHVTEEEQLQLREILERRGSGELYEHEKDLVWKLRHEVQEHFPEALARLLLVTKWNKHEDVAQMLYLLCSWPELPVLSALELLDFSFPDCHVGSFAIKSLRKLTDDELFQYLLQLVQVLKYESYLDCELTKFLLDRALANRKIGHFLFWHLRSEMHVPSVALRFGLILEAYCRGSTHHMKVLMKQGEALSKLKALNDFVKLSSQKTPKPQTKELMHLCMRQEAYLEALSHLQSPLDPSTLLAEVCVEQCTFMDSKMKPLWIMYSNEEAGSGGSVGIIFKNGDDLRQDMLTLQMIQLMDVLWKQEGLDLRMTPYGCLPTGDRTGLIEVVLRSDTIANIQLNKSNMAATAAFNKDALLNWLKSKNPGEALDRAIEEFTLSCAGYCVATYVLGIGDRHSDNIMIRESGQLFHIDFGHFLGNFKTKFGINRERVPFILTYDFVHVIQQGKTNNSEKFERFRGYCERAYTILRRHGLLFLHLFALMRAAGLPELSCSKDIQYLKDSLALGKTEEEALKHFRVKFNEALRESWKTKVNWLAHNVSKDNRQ

[5] = tested on: HeLa; assay: Induction of apoptosis in human HeLa cells assessed as viable cells at 2.5 uM incubated for 36 hrs by Annexin V-FITC/PI staining based flow cytometric analysis (reference value: 96.14 %); assay type: functional; details: read-out: Activity
[6] = tested on: HeLa; assay: Induction of apoptosis in human HeLa cells assessed as dead cells at 2.5 uM incubated for 36 hrs by Annexin V-FITC/PI staining based flow cytometric analysis (reference value: 0.44 %); assay type: functional
[7] = Volume of distribution at steady state in Sprague-Dawley rat at 1 mg/kg, iv measured for 24 hrs by LC-MS/MS analysis; assay type: ADME, organism-based; details: in vivo, read-out: Vdss
[8] = tested on: HeLa; assay: Antitumor activity against human HeLa cells xenografted in BALB/c nude mouse assessed as reduction in Ki67 expression in tumor administered intragastrically daily for 30 days by immunohistochemical analysis; assay type: functional; details: dose 15-60 mg/kg, route ig, time 30.0 day
[9] = tested on: L02; assay: Cytotoxicity against human L02 cells assessed as reduction in cell viability at 0.3125 to 10 uM incubated for 48 to 72 hrs by MTT assay; assay type: toxicity, cell-based; details: l02, 10 µM, dose lower 0.3125 µM, time lower 48 hrs, dose upper 10 µM, time upper 72 hrs
[10] = tested on: HeLa; assay: Inhibition of PI3K/mTOR signalling pathway in human HeLa cells assessed as inhibition of Akt phosphorylation at Thr308 residue incubated for 24 hrs by Western blot analysis; assay type: cell-based; details: dose 0.3125-2.5 µM, DDE = dose-dependent effect
[11] = tested on: HeLa; assay: Induction of apoptosis in human HeLa cells assessed as dead cells at 1.25 uM incubated for 36 hrs by Annexin V-FITC/PI staining based flow cytometric analysis (reference value: 0.44 %); assay type: functional
[12] = Toxicity in BALB/c nude mouse xenografted with human HeLa cells assessed as pathological changes in kidney at 60 mg/kg, IG administered daily for 30 days by hematoxylin and eosin staining based microscopic analysis; assay type: organism-based; details: in vivo, po, 720 h, time 30 day
[13] = tested on: NCI-H3122; assay: Antiproliferative activity against human NCI-H3122 cells assessed as inhibition of cell growth incubated for 48 to 72 hrs by MTT assay; assay type: functional, cell-based
[14] = tested on: HeLa; assay: Induction of apoptosis in human HeLa cells assessed as early apoptotic cells at 0.3125 uM incubated for 36 hrs by Annexin V-FITC/PI staining based flow cytometric analysis (reference value: 2.02 %); assay type: functional
[15] = target: DNA-dependent protein kinase catalytic subunit (Homo sapiens) (UniProt P78527); assay: Inhibition of DNA-PK (unknown origin) at 1 uM
[16] = tested on: Mus musculus; assay: In vivo inhibition of PI3K/mTOR signalling pathway in BALB/c nude mouse xenografted with human HeLa cells assessed as downregulation of Akt phosphorylation at Ser473 residue in tumor at 15 to 60 mg/kg, IG administered daily for 30 days; assay type: functional, organism-based; details: dose 15-60 mg/kg, time 30.0 day
[17] = tested on: HCT-15; assay: Antiproliferative activity against human HCT-15 cells with PIK3CA mutation assessed as inhibition of cell growth incubated for 48 to 72 hrs by MTT assay; assay type: functional, cell-based
[18] = tested on: HeLa; assay: Induction of apoptosis in human HeLa cells assessed as dead cells at 0.3125 uM incubated for 36 hrs by Annexin V-FITC/PI staining based flow cytometric analysis (reference value: 0.44 %); assay type: functional
[19] = Toxicity in BALB/c nude mouse xenografted with human HeLa cells assessed as pathological changes in heart at 60 mg/kg, IG administered daily for 30 days by hematoxylin and eosin staining based microscopic analysis; assay type: organism-based; details: in vivo, po, 720 h, time 30 day
[20] = tested on: HeLa; assay: Inhibition of colony formation in human HeLa cells assessed as reduction in colony forming ability incubated for 15 days by crystal violet staining based analysis; assay type: functional, cell-based; details: dose 0.15625-1.25 µM, time 15.0 day, DDE = dose-dependent effect
[21] = Toxicity in BALB/c nude mouse xenografted with human HeLa cells assessed as lethality at 15 to 60 mg/kg, IG administered daily for 30 days and measured every 2 days; assay type: organism-based; details: in vivo, po, 720 h, dose 15-60 mg/kg, time 30 day

Chain of DNA-dependent protein kinase catalytic subunit (Homo sapiens) (P78527 whole entry): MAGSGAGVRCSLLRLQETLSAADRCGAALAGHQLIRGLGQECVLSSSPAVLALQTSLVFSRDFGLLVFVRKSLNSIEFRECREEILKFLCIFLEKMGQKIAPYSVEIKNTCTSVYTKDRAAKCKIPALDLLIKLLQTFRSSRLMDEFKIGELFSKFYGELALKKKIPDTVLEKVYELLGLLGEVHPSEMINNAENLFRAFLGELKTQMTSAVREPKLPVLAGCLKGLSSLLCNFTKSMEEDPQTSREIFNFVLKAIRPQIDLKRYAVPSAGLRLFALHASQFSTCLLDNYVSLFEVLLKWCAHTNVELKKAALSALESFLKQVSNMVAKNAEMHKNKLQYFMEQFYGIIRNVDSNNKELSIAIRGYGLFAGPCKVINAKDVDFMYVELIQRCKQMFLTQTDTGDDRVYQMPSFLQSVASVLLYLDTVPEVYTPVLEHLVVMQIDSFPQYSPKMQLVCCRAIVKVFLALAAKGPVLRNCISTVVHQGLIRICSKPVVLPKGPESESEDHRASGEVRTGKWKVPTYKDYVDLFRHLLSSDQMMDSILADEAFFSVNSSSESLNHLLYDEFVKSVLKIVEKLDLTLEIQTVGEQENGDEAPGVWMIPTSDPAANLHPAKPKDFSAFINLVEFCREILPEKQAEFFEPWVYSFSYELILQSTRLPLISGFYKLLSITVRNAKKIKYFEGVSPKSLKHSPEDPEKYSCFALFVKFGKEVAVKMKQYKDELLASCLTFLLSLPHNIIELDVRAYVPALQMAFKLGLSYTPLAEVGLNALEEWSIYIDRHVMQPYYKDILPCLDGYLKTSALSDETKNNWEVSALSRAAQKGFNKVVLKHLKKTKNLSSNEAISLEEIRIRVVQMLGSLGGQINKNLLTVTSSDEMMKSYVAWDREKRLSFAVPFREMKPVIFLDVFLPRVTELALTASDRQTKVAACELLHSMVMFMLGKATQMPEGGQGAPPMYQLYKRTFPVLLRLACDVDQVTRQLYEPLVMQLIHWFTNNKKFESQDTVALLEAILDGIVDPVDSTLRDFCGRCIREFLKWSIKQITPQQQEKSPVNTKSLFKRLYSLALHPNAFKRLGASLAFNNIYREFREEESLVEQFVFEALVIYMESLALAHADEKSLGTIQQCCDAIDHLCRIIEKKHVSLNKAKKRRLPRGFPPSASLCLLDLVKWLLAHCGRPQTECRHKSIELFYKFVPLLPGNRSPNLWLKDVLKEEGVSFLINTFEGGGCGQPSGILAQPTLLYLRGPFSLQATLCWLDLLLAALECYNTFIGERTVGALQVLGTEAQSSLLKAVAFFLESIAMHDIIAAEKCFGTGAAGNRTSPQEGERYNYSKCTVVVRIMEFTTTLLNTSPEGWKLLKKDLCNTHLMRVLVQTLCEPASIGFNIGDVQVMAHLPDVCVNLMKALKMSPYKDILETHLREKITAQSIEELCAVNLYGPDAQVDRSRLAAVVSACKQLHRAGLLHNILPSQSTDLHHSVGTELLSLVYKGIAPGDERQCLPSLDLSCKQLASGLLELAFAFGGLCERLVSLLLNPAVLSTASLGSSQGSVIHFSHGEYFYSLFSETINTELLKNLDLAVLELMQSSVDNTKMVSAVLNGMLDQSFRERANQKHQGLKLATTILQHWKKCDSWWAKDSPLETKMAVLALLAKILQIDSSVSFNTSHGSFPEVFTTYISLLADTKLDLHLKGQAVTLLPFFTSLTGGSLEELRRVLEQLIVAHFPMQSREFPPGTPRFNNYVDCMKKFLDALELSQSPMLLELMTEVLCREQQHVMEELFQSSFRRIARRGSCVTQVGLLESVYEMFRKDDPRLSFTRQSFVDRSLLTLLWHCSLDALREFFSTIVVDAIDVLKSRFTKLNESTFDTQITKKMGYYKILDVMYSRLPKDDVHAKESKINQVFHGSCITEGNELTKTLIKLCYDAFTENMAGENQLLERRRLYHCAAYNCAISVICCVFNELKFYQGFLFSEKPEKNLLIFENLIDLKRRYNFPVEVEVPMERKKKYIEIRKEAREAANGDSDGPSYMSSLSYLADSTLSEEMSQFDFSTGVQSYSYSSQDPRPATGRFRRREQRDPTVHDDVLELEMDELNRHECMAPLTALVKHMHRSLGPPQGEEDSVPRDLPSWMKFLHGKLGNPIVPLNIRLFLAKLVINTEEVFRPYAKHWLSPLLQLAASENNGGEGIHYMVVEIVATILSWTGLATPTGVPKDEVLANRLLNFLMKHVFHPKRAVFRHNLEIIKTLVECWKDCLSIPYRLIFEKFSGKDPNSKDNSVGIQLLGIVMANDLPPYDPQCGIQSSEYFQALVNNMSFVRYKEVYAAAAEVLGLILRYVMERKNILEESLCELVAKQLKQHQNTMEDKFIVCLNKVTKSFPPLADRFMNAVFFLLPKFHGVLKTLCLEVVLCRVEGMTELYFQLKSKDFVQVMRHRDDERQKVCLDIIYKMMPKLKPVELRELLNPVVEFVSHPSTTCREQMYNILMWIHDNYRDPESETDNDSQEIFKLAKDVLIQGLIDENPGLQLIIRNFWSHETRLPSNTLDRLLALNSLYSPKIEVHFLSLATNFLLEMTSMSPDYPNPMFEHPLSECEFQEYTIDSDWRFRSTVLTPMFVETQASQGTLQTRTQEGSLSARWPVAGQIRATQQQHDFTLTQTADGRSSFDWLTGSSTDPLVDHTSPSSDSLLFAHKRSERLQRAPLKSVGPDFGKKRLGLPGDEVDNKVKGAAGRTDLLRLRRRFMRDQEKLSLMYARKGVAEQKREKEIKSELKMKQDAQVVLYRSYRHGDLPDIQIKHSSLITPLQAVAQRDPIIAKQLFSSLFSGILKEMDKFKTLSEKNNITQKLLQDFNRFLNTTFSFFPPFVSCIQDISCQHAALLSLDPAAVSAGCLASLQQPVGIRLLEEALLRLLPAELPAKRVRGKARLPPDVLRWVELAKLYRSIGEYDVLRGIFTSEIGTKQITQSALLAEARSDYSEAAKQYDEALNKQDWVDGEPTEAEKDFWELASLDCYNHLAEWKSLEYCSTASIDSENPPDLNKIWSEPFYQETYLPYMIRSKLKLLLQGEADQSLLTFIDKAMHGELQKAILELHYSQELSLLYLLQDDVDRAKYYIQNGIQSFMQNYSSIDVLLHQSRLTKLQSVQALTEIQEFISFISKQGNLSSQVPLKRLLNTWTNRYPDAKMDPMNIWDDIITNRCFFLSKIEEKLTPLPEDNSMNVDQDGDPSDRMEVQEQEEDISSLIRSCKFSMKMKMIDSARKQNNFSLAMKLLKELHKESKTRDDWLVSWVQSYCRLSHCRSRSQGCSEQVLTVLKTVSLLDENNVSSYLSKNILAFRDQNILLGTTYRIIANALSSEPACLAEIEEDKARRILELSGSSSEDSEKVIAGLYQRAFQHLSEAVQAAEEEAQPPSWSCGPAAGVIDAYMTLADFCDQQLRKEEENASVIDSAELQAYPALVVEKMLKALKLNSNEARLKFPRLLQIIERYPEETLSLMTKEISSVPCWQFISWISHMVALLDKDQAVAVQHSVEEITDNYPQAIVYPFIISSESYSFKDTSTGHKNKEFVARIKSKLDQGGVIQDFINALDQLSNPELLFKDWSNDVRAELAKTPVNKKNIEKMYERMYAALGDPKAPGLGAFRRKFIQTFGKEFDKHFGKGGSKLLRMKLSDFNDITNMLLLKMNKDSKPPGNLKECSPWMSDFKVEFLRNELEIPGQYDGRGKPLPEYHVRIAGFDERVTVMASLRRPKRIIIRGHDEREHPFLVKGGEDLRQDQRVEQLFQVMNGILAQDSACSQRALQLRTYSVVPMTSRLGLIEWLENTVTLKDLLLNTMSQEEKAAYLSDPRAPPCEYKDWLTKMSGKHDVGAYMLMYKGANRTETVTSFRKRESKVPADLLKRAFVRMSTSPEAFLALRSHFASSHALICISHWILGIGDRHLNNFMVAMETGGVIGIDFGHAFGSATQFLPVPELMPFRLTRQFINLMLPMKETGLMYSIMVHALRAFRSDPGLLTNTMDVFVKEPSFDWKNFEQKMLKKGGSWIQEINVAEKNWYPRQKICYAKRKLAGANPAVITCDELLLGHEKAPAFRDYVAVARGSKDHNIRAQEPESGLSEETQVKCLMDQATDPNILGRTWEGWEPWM

## Cc1nc2cnc3ccc(-c4cnc5[nH]ccc5c4)cc3c2n1-c1ccc(C(C)(C)C#N)nc1
[1]
  IC50: 90 nM
[2]
  Activity: Dde
[3]
  half-life: 1.16 h
[4]
  IC50: 4.6 nM
[5]
  viability at 2.5 µM: 27.8%
[6]
  Activity: 6.13%
[7]
  Vd: 1.53 L/kg
[8]
  Activity: Active
[9]
  Activity: Non-Toxic
[10]
  inhibition: Dde
[11]
  Activity: 7.4%
[12]
  Activity: Non-Toxic
[13]
  IC50: 290 nM
[14]
  Activity: 6.23%
[15]
  inhibition: Active
[16]
  inhibition: Active
[17]
  IC50: 170 nM
[18]
  Activity: 0.84%
[19]
  Activity: Non-Toxic
[20]
  inhibition: Dde
[21]
  Activity: Non-Toxic
